For 30 molecules, IC50 and EC50 results are on record in patent US20240116946A1 (Gilead Sciences, Inc., priority 2022, published 2024).

Read-outs that look alike come from different tables or passages of the source.

In test [1] the target is recombinant SARS-CoV-2 Main protease (Mpro) (Severe acute respiratory syndrome coronavirus 2 (2019-nCoV) (SARS-CoV-2), UniProt P0DTD1). The experiment in a line: Cov Mpro Biochemical IC50 Assay.
The test system of test [2] is SARS-CoV-2-NLuc. The experiment in a line: microbe, parasite or virus in culture. The format is cell-based, SARS Coronavirus 2.
The mark [3] stands for this setting: recombinant SARS-CoV-2 Mpro 7.5 nM, fluorogenic peptide substrate 40 μM, read-out: MPro IC50.
Where [4] appears, read: Severe acute respiratory syndrome coronavirus, 48 h, read-out: MPro EC50.
Setting [5] is: recombinant SARS-CoV-2 Mpro, fluorogenic peptide substrate, read-out: MPro IC50.
Setting [6] is: Severe acute respiratory syndrome coronavirus, 48 h; read-out: MPro EC50.

As for `COc1cc(-c2cc3[nH]c(=O)n(-c4cncc5nc(C)n(C)c45)c(=O)c3s2)c(Cl)cc1F` [Example 764], the IC50 in test [1] (setting [3]) stood at 18.1 nM. For the same molecule, in test [2] (setting [4]), the EC50 was determined as 257 nM.

Consider `COc1ccc(Cl)c(-c2cc3[nH]c(=O)n(-c4cncc5c(F)cccc45)c(=O)c3s2)c1` [Example 585], for which the IC50 in test [1] (setting [3]) amounted to 10.1 nM. In addition, in test [2] (setting [4]), the EC50 was found to be 29.3 nM.

For `CCc1ccncc1-n1c(=O)[nH]c2cc(-c3ccccc3Cl)ccc2c1=O` [Example 124], the IC50 in test [1] (setting [5]) worked out at 948 nM. The EC50 in test [2] (setting [4]) is 2220 nM.

As to `COc1ccc(C#N)c(-c2cc3[nH]c(=O)n(-c4cncc5ccccc45)c(=O)c3cc2F)c1` (single isomer, unassigned) [Example 439, 2-(6-fluoro-3-(isoquinolin-4-yl)-2,4-dioxo-1,2,3,4-tetrahydroquinazolin-7-yl)-4-methoxybenzonitrile], in test [1] (setting [3]), the IC50 turned out to be 828 nM. In addition, in test [2] (read-out: MPro EC50), the EC50 came out at 377 nM.

For `COc1cc(-c2cc3[nH]c(=O)n(-c4cncc5ccccc45)c(=O)c3cc2F)c(Cl)cc1F` [Example 650, 7-(2-chloro-4-fluoro-5-methoxy-phenyl)-6-fluoro-3-(4-isoquinolyl)-1H-quinazoline-2,4-dione], in test [1] (MPro IC50, recombinant SARS-CoV-2 Mpro 7.5 nM, fluorogenic peptide substrate 40 μM), the IC50 was determined as 31.7 nM. Also, the 50% effective concentration (EC50) in test [2] (setting [6]) is 33.9 nM.

Regarding `O=c1[nH]c2cc(-c3ccsc3-c3ccsc3Cl)ccc2c(=O)n1-c1cncc2ccccc12` [Example 85], the IC50 in test [1] (setting [5]) came out at 1490 nM. For the same molecule, in test [2] (setting [4]), the EC50 came to 751 nM.

As for `COc1ccc(Cl)c(-c2cc3[nH]c(=O)n(-c4cncc5ccc(N6C(=O)COC[C@@H]6C)cc45)c(=O)c3s2)c1` [Example 574], the IC50 in test [1] (setting [3]) came to 6.37 nM. For the same molecule, the EC50 in test [2] (read-out: MPro EC50) was found to be 18.5 nM.

On to `COc1cc(-c2cc3c(s2)c(=O)n(-c2cncc4ccccc24)c(=O)n3CC2(C#N)CC2)c(Cl)cc1F` (single isomer, unassigned) [Example 636, 1-[[6-(2-chloro-4-fluoro-5-methoxy-phenyl)-3-(4-isoquinolyl)-2,4-dioxo-thieno[3,2-d]pyrimidin-1-yl]methyl]cyclopropanecarbonitrile], for which the IC50 in test [1] (setting [3]) was found to be 11.6 nM. Moreover, the EC50 in test [2] (read-out: MPro EC50) turned out to be 5.54 nM.

On to `COc1cc(-c2cc3c(s2)c(=O)n(-c2cncc(C#N)c2)c(=O)n3CCC#N)c(Cl)cc1F` [Example 1040, 5-(6-(2-chloro-4-fluoro-5-methoxyphenyl)-1-(2-cyanoethyl)-2,4-dioxo-1,4-dihydrothieno[3,2-d]pyrimidin-3(2H)-yl)nicotinonitrile], for which the IC50 in test [1] (setting [3]) was 4.64 nM. For the same molecule, in test [2] (setting [6]), the EC50 came to 9.66 nM.

As to `Cn1ncc2cncc(-n3c(=O)c4sc(-c5cc(C#N)ccc5Cl)cc4n(CCC#N)c3=O)c21` [Example 811], the IC50 in test [1] (setting [3]) is 13.2 nM. For the same molecule, the EC50 in test [2] (setting [4]) amounted to 53.5 nM.

Turning to `COc1cc(-c2ccc3c(=O)n(-c4cncc5ccccc45)c(=O)n(CCC#N)c3c2)c(Cl)cc1F` [Example 949], in test [1] (setting [3]), the IC50 amounted to 147 nM. Moreover, in test [2] (setting [4]), the concentration for a half-maximal effect (EC50) came out at 757 nM.

Regarding `COc1ccc(C#N)c(-c2cc3[nH]c(=O)n(-c4cncc5ccc(OC)cc45)c(=O)c3s2)c1` [Example 626], the IC50 in test [1] (setting [3]) is 7.68 nM. In test [2] (setting [4]), the EC50 was 32.2 nM.

For `O=c1[nH]c2cc(-c3ccccc3)ccc2c(=O)n1-c1cncc2ccccc12` [Example 25], the IC50 in test [1] (setting [5]) stood at 1410 nM. For the same molecule, in test [2] (setting [4]), the EC50 stood at 5040 nM.

Turning to `COc1cc(-c2cc3[nH]c(=O)n(-c4cncc5cnn(C)c45)c(=O)c3cc2OC)c(C#N)cc1F` [Example 765], the IC50 in test [1] (setting [3]) turned out to be 13.9 nM. The EC50 in test [2] (setting [4]) was 94.2 nM.

`CCOc1ccc(Cl)c(-c2cc3[nH]c(=O)n(-c4cncc5ccccc45)c(=O)c3s2)c1` [Example 345]: in test [1] (setting [5]), the IC50 was 14.7 nM. The EC50 in test [2] (setting [4]) was 61.8 nM.

On to `COc1cnc(Cl)c(-c2cc3[nH]c(=O)n(-c4cncc5cnn(C)c45)c(=O)c3s2)c1` [Example 668], for which the IC50 in test [1] (setting [3]) turned out to be 23 nM. Also, the concentration for a half-maximal effect (EC50) in test [2] (setting [4]) is 123 nM.

On to `Cc1nnn(C)c1-c1cccc(Cl)c1-c1ccc2c(=O)n(-c3cncc4ccccc34)c(=O)[nH]c2c1` [Example 313], for which the IC50 in test [1] (setting [5]) amounted to 40.8 nM. For the same molecule, in test [2] (setting [4]), the EC50 worked out at 145 nM.

In the case of `O=c1[nH]c2cc(-c3ccccc3Cl)sc2c(=O)n1-c1cncc2ccc(N3CC(O)(C(F)(F)F)C3)cc12` [Example 426], the IC50 in test [1] (setting [3]) is 21.3 nM. For the same molecule, the EC50 in test [2] (setting [4]) was found to be 40.9 nM.

`O=c1[nH]c2cc(-c3ccccc3Cl)sc2c(=O)n1-c1cncc2ccsc12` [Example 479, 6-(2-chlorophenyl)-3-thieno[3,2-c]pyridin-7-yl-1H-thieno[3,2-d]pyrimidine-2,4-dione]: the IC50 in test [1] (setting [3]) came out at 16.7 nM. Besides, the EC50 in test [2] (setting [4]) is 20.9 nM.

`O=c1[nH]c2cc(-c3c(O)cccc3Cl)sc2c(=O)n1-c1cncc2ccccc12` [Example 8]: the IC50 in test [1] (setting [5]) amounted to 31.3 nM. In test [2] (setting [4]), the EC50 stood at 108 nM.

As for `CC(=O)N1CCN(c2ccc3cncc(-n4c(=O)[nH]c5cc(-c6ccccc6Cl)sc5c4=O)c3c2)CC1` [Example 387], the IC50 in test [1] (setting [5]) was less than 2.54 nM. The EC50 in test [2] (setting [4]) came to 30.3 nM.

Consider `CS(=O)(=O)c1cccc(-c2cccc(Cl)c2-c2ccc3c(=O)n(-c4cncc5ccccc45)c(=O)[nH]c3c2)c1` [Example 269], for which the IC50 in test [1] (setting [5]) was determined as 10.7 nM. Besides, in test [2] (setting [4]), the EC50 is less than 5.29 nM.

For `COc1ccc(Cl)c(-c2cc3[nH]c(=O)n(-c4cncc5nn(CC(F)(F)F)cc45)c(=O)c3s2)c1` [Example 501], the IC50 in test [1] (setting [3]) was found to be 14.8 nM. Besides, the EC50 in test [2] (setting [6]) worked out at 93.9 nM.

Consider `O=c1[nH]c2cc(-c3ccccc3Cl)sc2c(=O)n1-c1cncc2ccc(N3CCn4c(nnc4C(F)(F)F)C3)cc12` [Example 337], for which the IC50 in test [1] (setting [5]) was less than 2.68 nM. Also, the EC50 in test [2] (setting [4]) came to 170 nM.

With `Cn1ncc2cncc(-n3c(=O)c4sc(-c5ccccc5C#N)cc4n(CCC#N)c3=O)c21` (single isomer, unassigned) [Example 962, 2-(1-(2-cyanoethyl)-3-(1-methyl-1H-pyrazolo[4,3-c]pyridin-7-yl)-2,4-dioxo-1,2,3,4-tetrahydrothieno[3,2-d]pyrimidin-6-yl)benzonitrile], in test [1] (setting [3]), the IC50 is greater than 1000 nM. Besides, the EC50 in test [2] (read-out: MPro EC50) is greater than 1000 nM.

Take `COCCOCCOc1c(C)cncc1-n1c(=O)[nH]c2cc(-c3ccccc3Cl)sc2c1=O` [Example 215]: the IC50 in test [1] (setting [5]) is 10.7 nM. Further, the EC50 in test [2] (setting [4]) came to 94.1 nM.

As for `N#CCCn1c(=O)n(-c2cccnc2)c(=O)c2sc(-c3ccc(F)cc3Cl)cc21` [Example 800], the IC50 in test [1] (setting [3]) came to 32.6 nM. For the same molecule, the EC50 in test [2] (setting [6]) was 114 nM.

`COc1cnc(Cl)c(-c2cc3[nH]c(=O)n(-c4cncc5ccccc45)c(=O)c3s2)c1` (single isomer, unassigned) [Example 629, 6-(2-chloro-5-methoxypyridin-3-yl)-3-(isoquinolin-4-yl)thieno[3,2-d]pyrimidine-2,4(1H,3H)-dione]: the IC50 in test [1] (setting [3]) came out at 42.4 nM. Further, the EC50 in test [2] (read-out: MPro EC50) was 290 nM.

Take `O=c1[nH]c2cc(-c3c(Cl)cccc3OCc3cscn3)ccc2c(=O)n1-c1cncc2ccccc12` [Example 471, 7-[2-chloro-6-(thiazol-4-ylmethoxy)phenyl]-3-(4-isoquinolyl)-1H-quinazoline-2,4-dione]: the IC50 in test [1] (setting [3]) is 97.2 nM. In test [2] (read-out: MPro EC50), the EC50 turned out to be 478 nM.

In the case of `O=c1[nH]c2cc(-c3ccccc3Cl)sc2c(=O)n1-c1cncc2ccccc12` (single isomer, unassigned) [Example 150, 6-(2-chlorophenyl)-3-(isoquinolin-4-yl)thieno[3,2-d]pyrimidine-2,4(1H,3H)-dione], in test [1] (setting [5]), the IC50 stood at 73 nM. In addition, the EC50 in test [2] (read-out: MPro EC50) stood at 124 nM.
